Target: T1, SF9 affinity purified rat FPT (Rattus norvegicus, UniProt Q02293+Q04631)
T1 construct: made in house; host or cells: Sf9 insect cells
Assay: PFT (FPT) inhibitory activity assay, radiolabeled farnesyl pyrophosphate and biotinyl peptide, streptavidin beads
Format: biochemical
Details: HEPES buffer pH 7.4, 30° C., 30 minutes; read-out: FTase IC50
Summary of the method: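 Rat FPT expressed in SF9 cells was incubated 30 minutes at 30° C. with compound (in 10% DMSO), radiolabeled farnesyl pyrophosphate and biotinylated peptide. Buffer: HEPES pH 7.4, ZnCl2 20 μM, MgCl2 and DTT 5 mM each, 0.1% PEG 8000, 5 mM potassium phosphate (also run without phosphate). Product captured on streptavidin beads in magnesium acetate/H3PO4 stop buffer.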

Compound: O=C(NCCO)c1ccc(SCc2c(O[C@H](Cn3ccnc3)c3ccccc3)ccc3c2CCCC3=O)cc1 [Compound 174, N-(2-Hydroxyethyl)-4-{[(2-{[(1S)-2-(1H-imidazol-1-yl)-1-phenylethyl]oxy}-5-oxo-5,6,7,8-tetrahydro-1-naphthalenyl)methyl]sulfanyl}benzamide]
- IC50: 3 nM

Compound: O=C(NCCO)c1ccc(S(=O)(=O)Cc2c(O[C@H](Cn3ccnc3)c3ccccc3)ccc3c2CCCC3=O)cc1 [Compound 175, N-(2-Hydroxyethyl)-4-{[(2-{[(1S)-2-(1H-imidazol-1-yl)-1-phenylethyl]oxy}-5-oxo-5,6,7,8-tetrahydro-1-naphthalenyl)methyl]sulfonyl}benzamide]
- IC50: 10 nM

Compound: O=C(NCCO)c1cccc(S(=O)(=O)Cc2c(O[C@H](Cn3ccnc3)c3ccccc3)ccc3c2CCCC3=O)c1 [Compound 176, N-(2-Hydroxyethyl)-3-{[(2-{[(1S)-2-(1H-imidazol-1-yl)-1-phenylethyl]oxy}-5-oxo-5,6,7,8-tetrahydro-1-naphthalenyl)methyl]sulfonyl}benzamide]
- IC50: 7 nM

Compound: CN(C)CCNC(=O)c1ccc(SCc2c(O[C@H](Cn3ccnc3)c3ccccc3)ccc3c2CCCC3=O)cc1 [Compound 177, N-[2-(Dimethylamino)ethyl]-4-{[(2-{[(1S)-2-(1H-imidazol-1-yl)-1-phenylethyl]oxy}-5-oxo-5,6,7,8-tetrahydro-1-naphthalenyl)methyl]sulfanyl}benzamide]
- IC50: 3 nM

Compound: CN(C)CCNC(=O)c1cccc(SCc2c(O[C@H](Cn3ccnc3)c3ccccc3)ccc3c2CCCC3=O)c1 [Compound 178, N-[2-(Dimethylamino)ethyl]-3-{[(2-{[(1S)-2-(1H-imidazol-1-yl)-1-phenylethyl]oxy}-5-oxo-5,6,7,8-tetrahydro-1-naphthalenyl)methyl]sulfanyl}benzamide]
- IC50: 8 nM

Compound: CN(C)CCNC(=O)c1ccccc1SCc1c(O[C@H](Cn2ccnc2)c2ccccc2)ccc2c1CCCC2=O [Compound 179, N-[2-(Dimethylamino)ethyl]-2-{[(2-{[(1S)-2-(1H-imidazol-1-yl)-1-phenylethyl]oxy}-5-oxo-5,6,7,8-tetrahydro-1-naphthalenyl)methyl]sulfanyl}benzamide]
- IC50: 6 nM

Compound: CN(C)CCNC(=O)c1ccccc1S(=O)(=O)Cc1c(O[C@H](Cn2ccnc2)c2ccccc2)ccc2c1CCCC2=O [Compound 180, N-[2-(Dimethylamino)ethyl]-2-{[(2-{[(1S)-2-(1H-imidazol-1-yl)-1-phenylethyl]oxy}-5-oxo-5,6,7,8-tetrahydro-1-naphthalenyl)methyl]sulfonyl}benzamide]
- IC50: 6 nM

Compound: CN(C)CCNC(=O)c1ccc(S(=O)(=O)Cc2c(O[C@H](Cn3ccnc3)c3ccccc3)ccc3c2CCCC3=O)cc1 [Compound 181, N-[2-(Dimethylamino)ethyl]-4-{[(2-{[(1S)-2-(1H-imidazol-1-yl)-1-phenylethyl]oxy}-5-oxo-5,6,7,8-tetrahydro-1-naphthalenyl)methyl]sulfonyl}benzamide]
- IC50: 20 nM

Compound: CN(C)CCNC(=O)c1cccc(S(=O)(=O)Cc2c(O[C@H](Cn3ccnc3)c3ccccc3)ccc3c2CCCC3=O)c1 [Compound 182, N-[2-(Dimethylamino)ethyl]-3-{[(2-{[(1S)-2-(1H-imidazol-1-yl)-1-phenylethyl]oxy}-5-oxo-5,6,7,8-tetrahydro-1-naphthalenyl)methyl]sulfonyl}benzamide]
- IC50: 10 nM

Compound: CCOC(=O)CCNC(=O)c1ccccc1S(=O)(=O)Cc1c(O[C@H](Cn2ccnc2)c2ccccc2)ccc2c1CCCC2=O [Compound 183, Ethyl 3-[(2-{[(2-{[(1S)-2-(1H-Imidazol-1-yl)-1-phenylethyl]oxy}-5-oxo-5,6,7,8-tetrahydro-1-naphthalenyl)methyl]sulfonyl}benzoyl)amino]propanoate]
- IC50: 7 nM

Compound: CCOC(=O)C(C)NC(=O)c1ccccc1S(=O)(=O)Cc1c(O[C@H](Cn2ccnc2)c2ccccc2)ccc2c1CCCC2=O (stereo partly drawn) [Compound 185, Ethyl 2-[(2-{[(2-{[(1S)-2-(1H-Imidazol-1-yl)-1-phenylethyl]oxy}-5-oxo-5,6,7,8-tetrahydro-1-naphthalenyl)methyl]sulfonyl}benzoyl)amino]propanoate]
- IC50: 4 nM

Compound: CCOC(=O)C(C)NC(=O)c1ccccc1SCc1c(O[C@H](Cn2ccnc2)c2ccccc2)ccc2c1CCCC2=O (stereo partly drawn) [Compound 186, Ethyl 2-[(2-{[(2-{[(1S)-2-(1H-Imidazol-1-yl)-1-phenylethyl]oxy}-5-oxo-5,6,7,8-tetrahydro-1-naphthalenyl)methyl]sulfanyl}benzoyl)amino]propanoate]
- IC50: 4 nM

Compound: CCOC(=O)CCNC(=O)c1ccccc1SCc1c(O[C@H](Cn2ccnc2)c2ccccc2)ccc2c1CCCC2=O [Compound 187, Ethyl 3-[(2-{[(2-{[(1S)-2-(1H-Imidazol-1-yl)-1-phenylethyl]oxy}-5-oxo-5,6,7,8-tetrahydro-1-naphthalenyl)methyl]sulfanyl}benzoyl)amino]propanoate]
- IC50: 7 nM

Compound: CNC(=O)c1ccc(S(=O)(=O)Cc2c(O[C@H](Cn3ccnc3)c3ccccc3)ccc3c2CCCC3=O)cc1 [Compound 189, 4-{[(2-{[(1S)-2-(1H-2-Imidazol-1-yl)-1-phenylethyl]oxy}-5-oxo-5,6,7,8-tetrahydro-1-naphthalenyl)methyl]sulfonyl}-N-methylbenzamide]
- IC50: 10 nM

Compound: CNC(=O)c1cccc(S(=O)(=O)Cc2c(O[C@H](Cn3ccnc3)c3ccccc3)ccc3c2CCCC3=O)c1 [Compound 190, 3-{[(2-{[(1S)-2-(1H-imidazol-1-yl)-1-phenylethyl]oxy}-5-oxo-5,6,7,8-tetrahydro-1-naphthalenyl)methyl]sulfonyl}-N-methylbenzamide]
- IC50: 8 nM

Compound: CNC(=O)c1ccc(SCc2c(O[C@H](Cn3ccnc3)c3ccccc3)ccc3c2CCCC3=O)cc1 [Compound 191, 4-{[(2-{[(1S)-2-(1H-Imidazol-1-yl)-1-phenylethyl]oxy}-5-oxo-5,6,7,8-tetrahydro-1-naphthalenyl)methyl]sulfanyl}-N-methylbenzamide]
- IC50: 2 nM

Compound: CNC(=O)c1cccc(SCc2c(O[C@H](Cn3ccnc3)c3ccccc3)ccc3c2CCCC3=O)c1 [Compound 192, 3-{[(2-{[(1S)-2-(1H-Imidazol-1-yl)-1-phenylethyl]oxy}-5-oxo-5,6,7,8-tetrahydro-1-naphthalenyl)methyl]sulfanyl}-N-methylbenzamide]
- IC50: 7 nM

Compound: CNC(=O)c1ccccc1SCc1c(O[C@H](Cn2ccnc2)c2ccccc2)ccc2c1CCCC2=O [Compound 193, 2-{[(2-{[(1S)-2-(1H-Imidazol-1-yl)-1-phenylethyl]oxy}-5-oxo-5,6,7,8-tetrahydro-1-naphthalenyl)methyl]sulfanyl}-N-methylbenzamide]
- IC50: 5 nM

Compound: C[C@@H](O)CNC(=O)c1ccccc1SCc1c(O[C@H](Cn2ccnc2)c2ccccc2)ccc2c1CCCC2=O [Compound 194, N-[(2R)-2-Hydroxypropyl]-2-{[(2-{[(1S)-2-(1H-imidazol-1-yl)-1-phenylethyl]oxy}-5-oxo-5,6,7,8-tetrahydro-1-naphthalenyl)methyl]sulfanyl}benzamide]
- IC50: 0.2 nM

Compound: C[C@@H](O)CNC(=O)c1ccc(SCc2c(O[C@H](Cn3ccnc3)c3ccccc3)ccc3c2CCCC3=O)cc1 [Compound 195, N-[(2R)-2-Hydroxypropyl]-4-{[(2-{[(1S)-2-(1H-imidazol-1-yl)-1-phenylethyl]oxy}-5-oxo-5,6,7,8-tetrahydro-1-naphthalenyl)methyl]sulfanyl}benzamide]
- IC50: 0.2 nM

Compound: C[C@H](O)CNC(=O)c1ccc(SCc2c(O[C@H](Cn3ccnc3)c3ccccc3)ccc3c2CCCC3=O)cc1 [Compound 196, N-[(2S)-2-Hydroxypropyl]-4-{[(2-{[(1S)-2-(1H-imidazol-1-yl)-1-phenylethyl]oxy}-5-oxo-5,6,7,8-tetrahydro-1-naphthalenyl)methyl]sulfanyl}benzamide]
- IC50: 0.2 nM

Compound: C[C@H](O)CNC(=O)c1cccc(SCc2c(O[C@H](Cn3ccnc3)c3ccccc3)ccc3c2CCCC3=O)c1 [Compound 197, N-[(2S)-2-Hydroxypropyl]-3-{[(2-{[(1S)-2-(1H-imidazol-1-yl)-1-phenylethyl]oxy}-5-oxo-5,6,7,8-tetrahydro-1-naphthalenyl)methyl]sulfanyl}benzamide]
- IC50: 0.2 nM

Compound: C[C@H](O)CNC(=O)c1ccccc1SCc1c(O[C@H](Cn2ccnc2)c2ccccc2)ccc2c1CCCC2=O [Compound 198, N-[(2S)-2-Hydroxypropyl]-2-{[(2-{[(1S)-2-(1H-imidazol-1-yl)-1-phenylethyl]oxy}-5-oxo-5,6,7,8-tetrahydro-1-naphthalenyl)methyl]sulfanyl}benzamide]
- IC50: 0.2 nM

Compound: C[C@H](O)CNC(=O)c1ccc(S(=O)(=O)Cc2c(O[C@H](Cn3ccnc3)c3ccccc3)ccc3c2CCCC3=O)cc1 [Compound 199, N-[(2S)-2-Hydroxypropyl]-4-{[(2-{[(1S)-2-(1H-imidazol-1-yl)-1-phenylethyl]oxy}-5-oxo-5,6,7,8-tetrahydro-1-naphthalenyl)methyl]sulfonyl}benzamide]
- IC50: 0.4 nM

Compound: C[C@H](O)CNC(=O)c1cccc(S(=O)(=O)Cc2c(O[C@H](Cn3ccnc3)c3ccccc3)ccc3c2CCCC3=O)c1 [Compound 200, N-[(2S)-2-Hydroxypropyl]-3-{[(2-{[(1S)-2-(1H-imidazol-1-yl)-1-phenylethyl]oxy}-5-oxo-5,6,7,8-tetrahydro-1-naphthalenyl)methyl]sulfonyl}benzamide]
- IC50: 0.24 nM

Compound: C[C@H](O)CNC(=O)c1ccccc1S(=O)(=O)Cc1c(O[C@H](Cn2ccnc2)c2ccccc2)ccc2c1CCCC2=O [Compound 201, N-[(2S)-2-Hydroxypropyl]-2-{[(2-{[(1S)-2-(1H-imidazol-1-yl)-1-phenylethyl]oxy}-5-oxo-5,6,7,8-tetrahydro-1-naphthalenyl)methyl]sulfonyl}benzamide]
- IC50: 0.2 nM

Compound: C[C@@H](O)CNC(=O)c1ccccc1S(=O)(=O)Cc1c(O[C@H](Cn2ccnc2)c2ccccc2)ccc2c1CCCC2=O [Compound 202, N-[(2R)-2-Hydroxypropyl]-2-{[(2-{[(1S)-2-(1H-imidazol-1-yl)-1-phenylethyl]oxy}-5-oxo-5,6,7,8-tetrahydro-1-naphthalenyl)methyl]sulfonyl}benzamide]
- IC50: 0.2 nM

From patent US6943183B2 (Pfizer Inc, priority 2000, dated 2005)
